Laboratory results: ChEMBL document CHEMBL3727358, “Inhibitors of inducible form of 6-phosphofructose-2-kinase” (2014)

The compounds below were run against T1, 6-phosphofructo-2-kinase/fructose-2,6-bisphosphatase 3 (Homo sapiens, UniProt Q16875) (assay: Inhibition of iPFK2 (unknown origin) assessed as reduction in enzyme-mediated fructose-6-phosphate phosphorylation by measuring NADH absorbance pre-incubated for 10 mins before ATP/substrate addition followed by incubation for 1 hr by UV-Visible spectrometry based iPFK-2/PPI-PFK coupled enzyme assay).
T1 sequence (Q16875 whole entry): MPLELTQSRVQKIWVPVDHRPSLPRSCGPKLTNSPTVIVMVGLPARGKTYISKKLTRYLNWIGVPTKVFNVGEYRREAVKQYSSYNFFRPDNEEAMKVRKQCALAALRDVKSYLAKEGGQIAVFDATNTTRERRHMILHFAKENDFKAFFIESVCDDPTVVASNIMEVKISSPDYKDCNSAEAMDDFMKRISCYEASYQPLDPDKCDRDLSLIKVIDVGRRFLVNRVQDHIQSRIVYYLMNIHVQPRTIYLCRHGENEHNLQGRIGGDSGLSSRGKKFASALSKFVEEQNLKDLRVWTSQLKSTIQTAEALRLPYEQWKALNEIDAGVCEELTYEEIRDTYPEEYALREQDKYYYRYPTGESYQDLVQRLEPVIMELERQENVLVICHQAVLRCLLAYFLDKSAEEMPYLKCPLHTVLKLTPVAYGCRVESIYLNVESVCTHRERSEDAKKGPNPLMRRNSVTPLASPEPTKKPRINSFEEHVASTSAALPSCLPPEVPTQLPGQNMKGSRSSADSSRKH
`Cc1nc(NC(C)c2cccc(OCC#N)c2)cc(-c2ccc3ncsc3c2)n1` (stereo unspecified) was tested, and the IC50 was 0.5 µM.
For `Cc1nc(NCC2CCCN(C(=O)C3CCC3)C2)cc(-c2ccc3ncsc3c2)n1` (stereo unspecified), the IC50 was over 1 µM.
In the case of `CCN(C)C(=O)COc1cccc(C(C)Nc2cc(-c3ccc4ncsc4c3)nc(C)n2)c1` (stereo unspecified), the IC50 is reported as 0.5 µM.
`Cc1nc(N[C@@H]2CCCc3ccccc32)cc(-c2ccc(Cl)c(COC(C)C(=O)O)c2)n1` (stereo partly specified) was tested, and the IC50 was 0.5 µM.
With `Cc1nc(NC(C)c2cccc(OCCN(C)C)c2)cc(-c2ccc3ncsc3c2)n1` (stereo unspecified) the IC50 was 0.5 µM.
`COc1cccc([C@H](C)Nc2cc(-c3ccc(C)c(N)c3)nc(C)n2)c1` gave an IC50 of over 1 µM.
For `Cc1nc(N[C@@H]2CCCc3ccccc32)cc(-c2ccc3nonc3c2)n1`, the IC50 was over 1 µM.
`Cc1nc(N[C@@H]2CCCc3ccccc32)cc(-c2ccc3ncccc3c2)n1` gave an IC50 of over 1 µM.
Compound `Cc1nc(NC(C)c2cccc(OCCN(C)C)c2)cc(-c2ccc3occ(C)c3c2)n1` (stereo unspecified) has an IC50 of over 1 µM.
`Cc1nc(NCC2CCCN(C(=O)CN(C)C(=O)c3ccccc3)C2)cc(-c2ccc3ncsc3c2)n1` (stereo unspecified) gave an IC50 of over 1 µM.
Compound `Cc1nc(NC(C)c2cccc(OCC(=O)N3CCC3)c2)cc(-c2ccc3ncsc3c2)n1` (stereo unspecified) has an IC50 of over 1 µM.
`CCN(CC)C(=O)COc1cccc(C(C)Nc2cc(-c3ccc4c(c3)N(C)CCO4)nc(C)n2)c1` (stereo unspecified) showed an IC50 of over 1 µM.
Work on `Cc1nc(NC(C)c2cccc(S(N)(=O)=O)c2)cc(-c2ccc3ncsc3c2)n1` (stereo unspecified) yielded an IC50 of 0.5 µM.
Work on `Cc1nc(N[C@@H](C)c2cccc(/C=C/C(=O)NC(C)(C)C)c2)cc(-c2ccc3ncsc3c2)n1` yielded an IC50 of 0.5 µM.
`Cc1nc(NC(C)c2cccc(OCC(=O)N3CCCC3)c2)cc(-c2ccc3ncsc3c2)n1` (stereo unspecified) showed an IC50 of over 1 µM.
Compound `Cc1nc(NC(C)c2cccc(-c3nn[nH]n3)c2)cc(-c2ccc3ncsc3c2)n1` (stereo unspecified) has an IC50 of over 1 µM.
In the case of `Cc1nc(NC(C)c2cccc(-c3ccnc(N)n3)c2)cc(-c2ccc3ncsc3c2)n1` (stereo unspecified), the IC50 is reported as over 1 µM.
In the case of `Cc1nc(N[C@@H]2CCCc3ccccc32)cc(-c2ccc3nccnc3c2)n1`, the IC50 is reported as over 1 µM.
`COCCNC(=O)COc1cccc(C(C)Nc2cc(-c3ccc4ncsc4c3)nc(C)n2)c1` (stereo unspecified) gave an IC50 of 0.5 µM.
For `Cc1nc(N[C@@H](C)c2cccc(-c3cnc(N4CCCCC4)nc3)c2)cc(-c2ccc3ncsc3c2)n1`, the IC50 was 0.5 µM.
Work on `Cc1nc(NC(C)c2cccc(-c3cnn(C)c3)c2)cc(-c2ccc(F)c(Cl)c2)n1` (stereo unspecified) yielded an IC50 of over 1 µM.
`COc1cccc(Oc2cc(N[C@@H]3CCCc4ccccc43)nc(C)n2)c1` was tested, and the IC50 was over 1 µM.
`Cc1nc(N[C@@H]2CCCc3ccccc32)cc(-c2ccc3c(c2)C(=O)C=CC3)n1` gave an IC50 of 0.5 µM.
In the case of `Cc1nc(NC(C)c2cccc(-c3cnn(CC(=O)O)c3)c2)cc(-c2ccc3ncsc3c2)n1` (stereo unspecified), the IC50 is reported as 0.5 µM.
`Cc1nc(NC(C)c2cccc(NC(=O)CN(C)C(=O)OC(C)(C)C)c2)cc(-c2ccc3ncsc3c2)n1` (stereo unspecified) showed an IC50 of over 1 µM.
`Cc1nc(NCC2CCCN(C(=O)C3CCCCC3)C2)cc(-c2ccc3ncsc3c2)n1` (stereo unspecified) gave an IC50 of over 1 µM.
`Cc1nc(NC(C)c2cccc(-c3cnn(C)c3)c2)cc(-c2cc(F)c(F)c(F)c2)n1` (stereo unspecified) gave an IC50 of 0.5 µM.
For `Cc1nc(NC(C)c2cc(O)ccc2F)cc(-c2ccc3ncsc3c2)n1` (stereo unspecified), the IC50 was over 1 µM.
Compound `Cc1nc(NC(C)c2cccc(-c3cnn(C)c3)c2)cc(-c2ccc3ccccc3c2)n1` (stereo unspecified) has an IC50 of over 1 µM.
`Cc1nc(NC(C)c2cccc(OCC(N)=O)c2)cc(-c2cc3ccccc3n2C)n1` (stereo unspecified) was tested, and the IC50 was 0.5 µM.
For `Cc1nc(NCc2cc(OCC(=O)N3CCOCC3)ccc2F)cc(-c2ccc3ncsc3c2)n1`, the IC50 was over 1 µM.
Work on `Cc1nc(N[C@H](C)c2cccc(-c3cnn(C)c3)c2)cc(-c2cccc(F)c2)n1` yielded an IC50 of over 1 µM.
`COc1cccc([C@H](C)Nc2cc(-c3ccc4ncccc4c3)nc(C)n2)c1` showed an IC50 of over 1 µM.
Work on `Cc1nc(NCC2CCCN(C(=O)c3ccc[nH]3)C2)cc(-c2ccc3ncsc3c2)n1` (stereo unspecified) yielded an IC50 of over 1 µM.
For `CC(=O)N1CCN(CCOc2cccc(C(C)Nc3cc(-c4ccc5ncsc5c4)nc(C)n3)c2)CC1` (stereo unspecified), the IC50 was 0.5 µM.
In the case of `Cc1nc(NC(C)c2cccc(OCC(=O)N3CC3C)c2)cc(-c2ccc3ncsc3c2)n1` (stereo unspecified), the IC50 is reported as 0.5 µM.
`Cc1nc(N[C@H](C)c2ccnc(-c3cnn(C)c3)c2)cc(-c2ccc3occ(C)c3c2)n1` showed an IC50 of over 1 µM.
`Cc1nc(NC(C)c2cccc(OCC(=O)N(C)C)c2)cc(-c2ccc3ncsc3c2)n1` (stereo unspecified) was tested, and the IC50 was 0.5 µM.
Work on `Cc1nc(NC(C)c2cccc(OCC[C@H](O)c3ccccc3)c2)cc(-c2ccc3ncsc3c2)n1` (stereo partly specified) yielded an IC50 of over 1 µM.
`Cc1nc(NCc2cc(OCC(=O)N(C)C)ccc2F)cc(-c2ccc3ncsc3c2)n1` showed an IC50 of 0.5 µM.
`Cc1cc(COc2cccc([C@@H](C)Nc3cc(-c4ccc5ncsc5c4)nc(C)n3)c2)n(C)n1` showed an IC50 of over 1 µM.
For `Cc1nc(NC(C)c2cccc(-c3cnn(C)c3)c2)cc(-c2ccc(F)c(F)c2)n1` (stereo unspecified), the IC50 was 0.5 µM.
Compound `CCN(CC)c1ncc(-c2cccc([C@H](C)Nc3cc(-c4ccc5ncsc5c4)nc(C)n3)c2)cn1` has an IC50 of 0.5 µM.
In the case of `Cc1nc(NC(C)c2cccc(OCC(=O)NC3CC3)c2)cc(-c2ccc3ncsc3c2)n1` (stereo unspecified), the IC50 is reported as 0.5 µM.
In the case of `Cc1nc(NC(C)c2cccc(OCCCN3CCCC3)c2)cc(-c2ccc3ncsc3c2)n1` (stereo unspecified), the IC50 is reported as 0.5 µM.
Work on `CCN(CC)C(=O)COc1cccc(C(C)Nc2cc(-c3ccc4ccccc4c3)nc(C)n2)c1` (stereo unspecified) yielded an IC50 of 0.5 µM.
`Cc1nc(NC(C)c2cccc(OCC(=O)N3CCCCC3)c2)cc(-c2ccc3ncsc3c2)n1` (stereo unspecified) gave an IC50 of 0.5 µM.
`Cc1nc(NC(C)c2cccc(/C(N)=N/O)c2)cc(-c2ccc3ncsc3c2)n1` (stereo unspecified) showed an IC50 of over 1 µM.
`Cc1nc(NC(C)c2cccc(OCC(=O)NCC(C)O)c2)cc(-c2ccc3ncsc3c2)n1` (stereo unspecified) gave an IC50 of over 1 µM.
`Cc1nc(NC(C)c2cccc(-c3cnn(C)c3)c2)cc(-c2cccc(N(C)C)c2)n1` (stereo unspecified) was tested, and the IC50 was over 1 µM.
With `COc1cc(C(C)Nc2cc(-c3ccc4ncsc4c3)nc(C)n2)ccn1` (stereo unspecified) the IC50 was 0.5 µM.
`Cc1nc(NC(C)c2cccc(OCC(=O)O)c2)cc(-c2ccc3ncsc3c2)n1` (stereo unspecified) gave an IC50 of over 1 µM.
For `Cc1nc(N[C@H](C)c2cccc(-c3cnn(C)c3)c2)cc(-c2ccc3ncsc3c2)n1`, the IC50 was over 1 µM.
`COc1ccc(-c2cc(NC(C)c3cccc(-c4cnn(C)c4)c3)nc(C)n2)c(F)c1` (stereo unspecified) showed an IC50 of over 1 µM.

What follows are compounds tested against T1, 6-phosphofructo-2-kinase/fructose-2,6-bisphosphatase 3 (assay: Inhibition of iPFK2 (unknown origin) assessed as reduction in enzyme-mediated fructose-6-phosphate phosphorylation by measuring ATP consumption incubated for 3 hrs by luciferase-luciferin-coupled chemiluminescence assay).
`COCC(C)Nc1cc(-c2ccc3ncsc3c2)nc(C)n1` (stereo unspecified) gave an IC50 of over 1 µM.
For `Cc1nc(NC(C)c2cccc(OCc3ccccc3)c2)cc(-c2ccc3ncsc3c2)n1` (stereo unspecified), the IC50 was over 1 µM.
With `Cc1nc(NC(C)c2cccc(OCc3cccnc3)c2)cc(-c2ccc3ncsc3c2)n1` (stereo unspecified) the IC50 was 0.5 µM.
Compound `Cc1nc(NC(C)c2cccc(-c3cnn(C)c3)c2)cc(-c2ccc3c(c2)OCCO3)n1` (stereo unspecified) has an IC50 of over 1 µM.
In the case of `Cc1nc(NC(C)c2cccc(OCc3csc(C)n3)c2)cc(-c2ccc3ncsc3c2)n1` (stereo unspecified), the IC50 is reported as 0.5 µM.
`Cc1nc(NC(C)c2cccc(-c3ccoc3)c2)cc(-c2ccc3occ(C)c3c2)n1` (stereo unspecified) was tested, and the IC50 was 0.5 µM.
`Cc1nc(N[C@@H](C)c2cccc(-c3cc[nH]n3)c2)cc(-c2ccc3ncsc3c2)n1` showed an IC50 of 0.5 µM.
Compound `Cc1nc(NC(C)c2cccc(-c3ccc(F)nc3C)c2)cc(-c2ccc3ncsc3c2)n1` (stereo unspecified) has an IC50 of 0.5 µM.
`Cc1nc(NC(C)c2cccc(-c3cnn(C)c3)c2)cc(-c2cccc(O)c2)n1` (stereo unspecified) was tested, and the IC50 was 0.5 µM.
Compound `Cc1nc(NC(C)c2cccc(-c3ccsc3)c2)cc(-c2ccc3occ(C)c3c2)n1` (stereo unspecified) has an IC50 of over 1 µM.
With `Cc1nc(NC(C)c2cccc(OCC(=O)NCCN(C)C)c2)cc(-c2ccc3ncsc3c2)n1` (stereo unspecified) the IC50 was 0.5 µM.
With `Cc1nc(NC(C)c2cccc(OCCF)c2)cc(-c2ccc3ncsc3c2)n1` (stereo unspecified) the IC50 was 0.5 µM.
With `Cc1nc(NC(C)c2cccc(-c3cnn(C)c3)c2)cc(-c2ccc3c(c2)CCO3)n1` (stereo unspecified) the IC50 was 0.5 µM.
`Cc1nc(NC2CC(C)(C)Oc3ccccc32)cc(-c2ccc3ncsc3c2)n1` (stereo unspecified) showed an IC50 of 0.5 µM.
Work on `Cc1nc(N[C@@H]2CCCc3ccccc32)cc(-c2ccc3c(ccn3C)c2)n1` yielded an IC50 of 0.5 µM.
In the case of `Cc1nc(NC(C)c2cccc(OCC(=O)NCC(C)O)c2)cc(-c2ccc3ncsc3c2)n1` (stereo unspecified), the IC50 is reported as 0.5 µM.
With `CCCOc1cccc(C(C)Nc2cc(-c3ccc4ncsc4c3)nc(C)n2)c1` (stereo unspecified) the IC50 was over 1 µM.
